PubChem BioAssay AID2060513 (Molecular Pharmacology Branch, DTP, NCI, 2025)

System: 299254-011-R-J1-PDC complex spheroids viability
Assay: Anticancer human tumor 299254-011-R-J1-PDC patient-derived melanoma cell line growth inhibition [GQUAD]
Conditions: for IC50: curve of first compound; for viability, T/C: stronger effect = lower value
In short: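 Tumor cells were grown as complex spheroids with HUVEC endothelial cells and mesenchymal stem cells as stroma. G-quadruplex stabilizers were combined with targeted agents over half-log dilutions from near the clinical Cmax, or from 10 microM.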

[1] = second compound 0.0316 µM, first compound 0.0316 µM
[2] = second compound 0.0316 µM, first compound 0.316 µM
[3] = second compound 0.1 µM, first compound 0.0316 µM
[4] = second compound 0.1 µM, first compound 0.316 µM
[5] = second compound 0.316 µM, first compound 0.0316 µM
[6] = second compound 0.316 µM, first compound 0.316 µM
[7] = second compound 1 µM, first compound 0.0316 µM
[8] = second compound 1 µM, first compound 0.316 µM
[9] = second compound 3.16 µM, first compound 0.0316 µM
[10] = second compound 3.16 µM, first compound 0.316 µM
[11] = second compound 10 µM, first compound 0.0316 µM
[12] = second compound 10 µM, first compound 0.316 µM
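Note: spheroids exposed to the agents for seven days before readout.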
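Throughout, for viability, T/C: percent viability relative to DMSO vehicle control wells = 100%.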

## CCc1c2c(nc3ccc(O)cc13)-c1cc3c(c(=O)n1C2)COC(=O)[C@]3(O)CC + Cc1cnc(CNC(=O)c2c(=O)c3ccc(N4CCCN(C)CC4)nc3n3c2sc2ccccc23)cn1
Second compound 0.0316 µM
  IC50: > 0.316 µM
Second compound 0.1 µM
  IC50: > 0.316 µM
Second compound 0.316 µM
  IC50: > 0.316 µM
Second compound 1 µM
  IC50: > 0.316 µM
Second compound 3.16 µM
  IC50: 0.142 µM
Second compound 10 µM
  IC50: < 0.000999 µM
Second compound 0.0316 µM, first compound 0.000999 µM
  viability, T/C: 102%
Second compound 0.0316 µM, first compound 0.00316 µM
  viability, T/C: 95.6%
Second compound 0.0316 µM, first compound 0.00999 µM
  viability, T/C: 68.3%
[1]
  viability, T/C: 70.9%
Second compound 0.0316 µM, first compound 0.0999 µM
  viability, T/C: 76.7%
[2]
  viability, T/C: 62.3%
Second compound 0.1 µM, first compound 0.000999 µM
  viability, T/C: 95.5%
Second compound 0.1 µM, first compound 0.00316 µM
  viability, T/C: 107%
Second compound 0.1 µM, first compound 0.00999 µM
  viability, T/C: 76.5%
[3]
  viability, T/C: 71.2%
Second compound 0.1 µM, first compound 0.0999 µM
  viability, T/C: 65.5%
[4]
  viability, T/C: 60.2%
Second compound 0.316 µM, first compound 0.000999 µM
  viability, T/C: 93.8%
Second compound 0.316 µM, first compound 0.00316 µM
  viability, T/C: 95.4%
Second compound 0.316 µM, first compound 0.00999 µM
  viability, T/C: 72.4%
[5]
  viability, T/C: 67.8%
Second compound 0.316 µM, first compound 0.0999 µM
  viability, T/C: 68.2%
[6]
  viability, T/C: 60.5%
Second compound 1 µM, first compound 0.000999 µM
  viability, T/C: 76.4%
Second compound 1 µM, first compound 0.00316 µM
  viability, T/C: 79.8%
Second compound 1 µM, first compound 0.00999 µM
  viability, T/C: 77.5%
[7]
  viability, T/C: 74.8%
Second compound 1 µM, first compound 0.0999 µM
  viability, T/C: 54.6%
[8]
  viability, T/C: 63.4%
Second compound 3.16 µM, first compound 0.000999 µM
  viability, T/C: 77.6%
Second compound 3.16 µM, first compound 0.00316 µM
  viability, T/C: 68%
Second compound 3.16 µM, first compound 0.00999 µM
  viability, T/C: 64%
[9]
  viability, T/C: 59%
Second compound 3.16 µM, first compound 0.0999 µM
  viability, T/C: 56%
[10]
  viability, T/C: 43%
Second compound 10 µM, first compound 0.000999 µM
  viability, T/C: 0.47%
Second compound 10 µM, first compound 0.00316 µM
  viability, T/C: 20.1%
Second compound 10 µM, first compound 0.00999 µM
  viability, T/C: 34.8%
[11]
  viability, T/C: 11.9%
Second compound 10 µM, first compound 0.0999 µM
  viability, T/C: 0.39%
[12]
  viability, T/C: 0.32%

## COc1cc(C2c3cc4c(cc3C(OC3OC5COC(C)OC5C(O)C3O)C3COC(=O)C23)OCO4)cc(OC)c1O (centres undefined) + Cc1cnc(CNC(=O)c2c(=O)c3ccc(N4CCCN(C)CC4)nc3n3c2sc2ccccc23)cn1
Second compound 0.0316 µM
  IC50: > 10 µM
Second compound 0.1 µM
  IC50: > 10 µM
Second compound 0.316 µM
  IC50: > 10 µM
Second compound 1 µM
  IC50: > 10 µM
Second compound 3.16 µM
  IC50: > 10 µM
Second compound 10 µM
  IC50: 0.0316 µM
[1]
  viability, T/C: 105%
Second compound 0.0316 µM, first compound 0.1 µM
  viability, T/C: 121%
[2]
  viability, T/C: 84.4%
Second compound 0.0316 µM, first compound 1 µM
  viability, T/C: 90.1%
Second compound 0.0316 µM, first compound 3.16 µM
  viability, T/C: 76.7%
Second compound 0.0316 µM, first compound 10 µM
  viability, T/C: 86.6%
[3]
  viability, T/C: 112%
Second compound 0.1 µM, first compound 0.1 µM
  viability, T/C: 95.8%
[4]
  viability, T/C: 89%
Second compound 0.1 µM, first compound 1 µM
  viability, T/C: 87.9%
Second compound 0.1 µM, first compound 3.16 µM
  viability, T/C: 95.1%
Second compound 0.1 µM, first compound 10 µM
  viability, T/C: 77.7%
[5]
  viability, T/C: 90%
Second compound 0.316 µM, first compound 0.1 µM
  viability, T/C: 110%
[6]
  viability, T/C: 130%
Second compound 0.316 µM, first compound 1 µM
  viability, T/C: 105%
Second compound 0.316 µM, first compound 3.16 µM
  viability, T/C: 82.4%
Second compound 0.316 µM, first compound 10 µM
  viability, T/C: 63.5%
[7]
  viability, T/C: 90.4%
Second compound 1 µM, first compound 0.1 µM
  viability, T/C: 84.8%
[8]
  viability, T/C: 103%
Second compound 1 µM, first compound 1 µM
  viability, T/C: 75.9%
Second compound 1 µM, first compound 3.16 µM
  viability, T/C: 84.9%
Second compound 1 µM, first compound 10 µM
  viability, T/C: 61.9%
[9]
  viability, T/C: 78.5%
Second compound 3.16 µM, first compound 0.1 µM
  viability, T/C: 79.5%
[10]
  viability, T/C: 69.1%
Second compound 3.16 µM, first compound 1 µM
  viability, T/C: 73%
Second compound 3.16 µM, first compound 3.16 µM
  viability, T/C: 82.4%
Second compound 3.16 µM, first compound 10 µM
  viability, T/C: 59.2%
[11]
  viability, T/C: 31%
Second compound 10 µM, first compound 0.1 µM
  viability, T/C: 16.7%
[12]
  viability, T/C: 67.1%
Second compound 10 µM, first compound 1 µM
  viability, T/C: 69.8%
Second compound 10 µM, first compound 3.16 µM
  viability, T/C: 33.5%
Second compound 10 µM, first compound 10 µM
  viability, T/C: 0.3%
